Measured values from patent US20140271534A1, “COMPOUNDS, COMPOSITIONS, AND METHODS FOR REPELLING AN INSECT FROM AN AREA, ARTICLE, AND/OR STRUCTURE” (BAYER CROPSCIENCE LP, priority 2013, published 2014).

Assays:
[1] = tested on: honeybees; assay: honeybee repulsion experiment, feeding stations with 50% sucrose; assay type: in vivo; conditions: for repellency to honeybees at 24 hours: 2% by weight in 50% sucrose feeder
Experimental: FIG. 1 describes the feeding station arrangement (A and B) for the honeybee repulsion experiments described herein. As set forth in FIG. 1, panel (A) sets forth the bee cage positions on the left portion of panel (A) with the randomized feeding station positions on the right portion of panel (A). Panel (B) sets forth an alignment of the randomized feeding station positions with a distance of two meters between feeding stations. A total of eight feeding stations were evaluated at a ten meter distance in front of the respective bee hives. The feeding stations were placed two meters apart from one another.
Honeybees were trained to deep feeders (eight positions), each containing a 50% sucrose solution for one day. After the honeybees were trained to each feeder, the 50% sucrose feeder at randomized positions 1-8 was replaced with a shallow feeder containing a combination of repelling compounds and a 50% sucrose solution according to Table 3. In accordance with FIGS. 5 and 6, 2% by weight of Camphor oil (T4), Ajowan oil (T5), Camphor powder (T6), Rosemary oil (T7), and 2-Decanone (T8) in combination with a 50% sucrose treatment were added to feeders on day two.
Table 3 describes active agents evaluated for bee repulsion and their randomized feeding station positions. As described in Table 3, T1 (control), T2 (control), T3 (control), T4 (Camphor oil), T5 (Ajowan oil), T6 (Camphor powder), T7 (Rosemary oil), and T8 (2-Decanone).
FIG. 5 evaluates the number of bees visiting a respective feed station over a time interval. FIG. 6 sets forth the mean number of honeybees visiting feeding station over a period of four hours.

[2] = stability test of Poncho combined with Eugenol, clothianidin content by HPLC; assay type: physicochemical; conditions: in Poncho combined with Eugenol; up to 54° C. for seven days
Experimental: Table 4 describes a stability test with a combination of Eugenol and Poncho evaluated at room temperature, 40° C., and 54° C. at zero time, 3 days, and 7 days as confirmed by high performance liquid chromatography (HPLC).

[3] = stability test of Poncho 600 combined with α-terpineol, clothianidin content by HPLC; assay type: physicochemical; conditions: in Poncho combined with alpha-terpineol; up to 54° C. for eight days
Experimental: Table 5 describes a stability test with a combination of α-terpineol and Poncho 600 evaluated at room temperature, 40° C., and 54° C. at zero time, 2 days, and 8 days as confirmed by HPLC.

SMILES | repellency to honeybees at 24 hours [1] | repellency to honeybees at 24 hours ([1]; listed as 2-decanone) | repellency to honeybees over the full 4 hour assessment period ([1]; in 50% sucrose feeder, 4 hour assessment period) | chemical stability of clothianidin content [2] | chemical stability of clothianidin content [3]
CCCCCCCCC(C)=O [Compound 2-Decanone, 2-decanone] | exhibited repellency | still repellent | highly repellent |  | 
CN/C(=N\[N+](=O)[O-])NCc1cnc(Cl)s1 [clothianidin] |  |  |  | exhibited chemical stability | exhibited chemical stability
